# Assay results taken from patent US4698350A, “1-ethyl-6-fluoro-1,4-dihydro- 7-(2,6-dimethyl-4-pyridinyl)-4-oxo-3-quinolinecarboxylic acid and antibacterial use thereof” (Sterling Drug Inc., priority 1984, dated 1987).
# Where two headings read alike, the source gives them in different places.
# Tests used:
# S. edidermidis = assay: In vitro MIC/MBC summary (Table II); assay type: cell-based, S. epidermidis; details: Staphylococcus epidermidis; for MIC: read-out: MIC Range
# Experimental: (§1) Win 52,522 and Win 35,439 were solubilized in 0.1 ml of 0.5 N NaOH/mg of compound and diluted in sterile distilled water to 160 mcg/ml. Vancomycin and methicillin were solubilized in sterile distilled water to 1250 mcg/ml of base compound. The stock solutions were sterilized by filtration through membrane filters with a 0.45 μm pore size.
# (§2) The bacterial cultures listed in Table I (hereinbelow) were grown overnight at 37° C. in MHB for all cultures except the Streptococcus strains. These were grown in BHI+10% NHS. The overnight broth cultures were adjusted to an optical density of 0.10 (650 nm, B L Spectronic 20) in sterile distilled water and subsequently diluted to 6.7×10^6 cells/ml in MHB or BHI+1% NHS.
# (§3) Serial two-fold dilutions of the compound solutions were prepared in MHB (or in BHI+1% NHS for tests with Streptococci) and dispensed into 96-well microtiter trays in a volume of 0.1 ml/well using a Sandy Springs (Bellco Glass Co.) dispenser. The trays were then inoculated with 0.0015 ml of a suspension containing 6.7×10^6 cells/ml of the appropriate inoculum using a MIC-2000 inoculator (Dynatech Corp.) resulting in a final inoculum of approximately 1×10^4 cells/well or 1×10^5 cells/ml. The trays were incubated at 37° C. for 18-20 hours and the minimal inhibitory concentration (MIC), defined as the lowest concentration of compound to inhibit visible bacterial growth, was recorded.
# (§4) After the MIC values were recorded, the contents in the microtiter trays were thoroughly mixed on a Bellco Mini-orbital Shaker (Bellco Glass Co.) for 3 min. at a setting of 8. A portion (0.0015 ml) from each well was then transferred via an MIC-2000 inoculator to plates containing MHA or BHI agar+10% NHS. The plates were incubated at 37° C. for 18-20 hrs. The minimal bactericidal concentration (MBC), defined as the lowest concentration of compound that prevented the formation of a recognizable colony on the agar surface, was recorded.
# Streptococcus sp. = assay: In vitro MIC/MBC summary (Table II); assay type: cell-based; details: for MIC: read-out: MIC Range
# Experimental: as §1, §2, §3, §4
# S. aureus = assay: In vitro MIC/MBC summary (Table II); assay type: cell-based; details: Staphylococcus aureus, 15 S. aureus strains; for MIC50: read-out: MIC 50%; for MIC90: read-out: MIC 90%; for MIC: read-out: MIC Range
# Experimental: as §1, §2, §3, §4
# [1] = system: Staphylococcus aureus 39881 (Methicillin-resistant); assay: Mouse protection test, S. aureus 39881 (methicillin-resistant) infection; assay type: in vivo, ICR mice; Staphylococcus aureus; details: for Survivors/Total: two doses; for ED50: Staphylococcus aureus, 168 h, read-out: Protective Dose 50% (95% Confidence Limits); for Protective Dose 50% (95% Confidence Limits): 10080 min
# Experimental: ICR mice, female, 18-20 grams each.
# Solutions of Win 52,522 and Win 35,439 were prepared by dissolving the appropriate weight of drug in 0.3 to 0.4 ml of 1 N NaOH and then bringing the solutions to the desired volume with distilled water. Methicillin and vancomycin were dissolved directly in distilled water.
# The culture was streaked onto three Brain Heart Infusion Agar plates and incubated 16 hours at 37° C. The cells were washed off each plate with five ml of saline and the cell suspension was shaken with glass beads for two minutes on a paint shaker. The suspension was diluted with saline so that a […] gave a 44% T reading on a B+L Spectronic 20 (650 nm) calibrated with saline. The stock suspension was diluted 1:24 (10 ml stock suspension+230 ml 5% mucin) to obtain the test inoculum containing 1.55×10^9 cells/ml.
# Mice were inoculated intraperitoneally with 0.5 ml of the bacterial test inoculum.
# Mice were medicated twice: at one-half and four hours postinfection. The drugs were administered by both subcutaneous (0.2 ml) and oral (0.5 ml) routes.
# Deaths were recorded daily for seven days for all tests. Fifty percent protective dose values (PD50's) were calculated using probit analysis [SAS Users Guide: Statistics, 1982 Edition, SAS Institute, Inc., Cary, N.C.].
# S. pneumoniae Type I = assay: In vitro antibacterial MIC/MBC test; assay type: cell-based; details: Streptococcus pneumoniae
# Experimental: as §1, §2, §3, §4
# S. aureus 39881 = assay: In vitro antibacterial MIC/MBC test; assay type: cell-based; details: Staphylococcus aureus
# Experimental: as §1, §2, §3, §4
# S. aureus 4-81 = assay: In vitro antibacterial MIC/MBC test; assay type: cell-based; details: Staphylococcus aureus, 481
# Experimental: as §1, §2, §3, §4
# S. epidermidis 2-1-B = assay: In vitro antibacterial MIC/MBC test; assay type: cell-based; details: Staphylococcus epidermidis, 21B
# Experimental: as §1, §2, §3, §4
# S. pyogenes C203 = assay: In vitro antibacterial MIC/MBC test; assay type: cell-based; details: Streptococcus pyogenes
# Experimental: as §1, §2, §3, §4
# S. faecalis 4510 = assay: In vitro antibacterial MIC/MBC test; assay type: cell-based; details: Enterococcus faecalis
# Experimental: as §1, §2, §3, §4
# S. aureus S-500 = assay: In vitro antibacterial MIC/MBC test; assay type: cell-based; details: Staphylococcus aureus, S500
# Experimental: as §1, §2, §3, §4
# S. pyogenes (89) = assay: In vitro antibacterial MIC/MBC test; assay type: cell-based; details: Streptococcus pyogenes
# Experimental: as §1, §2, §3, §4
# [2] = po, two doses one-half and four hours postinfection
# [3] = sc, two doses one-half and four hours postinfection
compound,measurement,setting,value
"CCn1cc(C(=O)O)c(=O)c2cc(F)c(-c3cc(C)nc(C)c3)cc21 [Win 52,522, 1-ethyl-6-fluoro-1,4-dihydro-7-(2,6-dimethyl-4-pyridinyl)-4-oxo-3-quinolinecarboxylic acid]",MBC,"S. edidermidis; 5 S. edidermidis strains, read-out: MBC 50%",0.06 µg/mL
same,MBC,"S. edidermidis; 5 S. edidermidis strains, read-out: MBC 90%",0.06 µg/mL
same,MBC,"S. edidermidis; 5 S. edidermidis strains, read-out: MBC Range",0.03 to 0.125 µg/mL
same,MIC50,"S. edidermidis; 5 S. edidermidis strains, read-out: MIC 50%",0.06 µg/mL
same,MIC90,"S. edidermidis; 5 S. edidermidis strains, read-out: MIC 90%",0.06 µg/mL
same,MIC,S. edidermidis; 5 S. edidermidis strains,0.03 to 0.06 µg/mL
same,MBC,"Streptococcus sp.; 9 Streptococcus sp. strains, read-out: MBC 50%",0.5 µg/mL
same,MBC,"Streptococcus sp.; 9 Streptococcus sp. strains, read-out: MBC 90%",0.5 µg/mL
same,MBC,"Streptococcus sp.; 9 Streptococcus sp. strains, read-out: MBC Range",0.125 to 0.5 µg/mL
same,MIC50,"Streptococcus sp.; 9 Streptococcus sp. strains, read-out: MIC 50%",0.25 µg/mL
same,MIC,Streptococcus sp.; 9 Streptococcus sp. strains,0.125 to 0.5 µg/mL
same,MIC90,Streptococcus sp.; Streptococcus,0.5 µg/mL
same,MBC,S. aureus; read-out: MBC Range,0.015 to 0.06 µg/mL
same,MIC50,S. aureus,0.015 µg/mL
same,MIC90,S. aureus,0.03 µg/mL
same,MIC,S. aureus,0.008 to 0.03 µg/mL
same,Survivors/Total,[1]; 0.19 mg/kg po,0/10
same,Survivors/Total,[1]; 0.19 mg/kg sc,0/10
same,Survivors/Total,[1]; 0.39 mg/kg po,0/10
same,Survivors/Total,[1]; 0.39 mg/kg sc,0/10
same,Survivors/Total,[1]; 0.78 mg/kg po,1/10
same,Survivors/Total,[1]; 0.78 mg/kg sc,2/10
same,Survivors/Total,[1]; 1.56 mg/kg po,4/10
same,Survivors/Total,[1]; 1.56 mg/kg sc,10/10
same,Survivors/Total,[1]; 3.13 mg/kg po,10/10
same,Survivors/Total,[1]; 3.13 mg/kg sc,9/10
same,Survivors/Total,[1]; 6.25 mg/kg po,10/10
same,Survivors/Total,[1]; 6.25 mg/kg sc,10/10
same,ED50,[1]; [2],1.6 mg/kg
same,ED50,[1]; [3],1.1 mg/kg
same,times more efficacious than methicillin,[1]; methicillin-resistant S. aureus infection in mice,> 91 times
same,Protective Dose 50% (95% Confidence Limits),[1]; [2],1.6(1.3-2.4) mg/kg
same,"times more active than Win 35,439",[1]; sc,4.5 times
same,times more efficacious/active than vancomycin,[1]; sc,16 times
same,Protective Dose 50% (95% Confidence Limits),[1]; [3],1.1(0.1-4.1) mg/kg
same,MBC,"S. pneumoniae Type I; S. pneumoniae Type I, read-out: MBC",0.25 µg/mL
same,MIC,"S. pneumoniae Type I; S. pneumoniae Type I, read-out: MIC",0.25 µg/mL
same,MBC,"S. aureus 39881; S. aureus 39881, read-out: MBC",0.03 µg/mL
same,MIC,"S. aureus 39881; S. aureus 39881, read-out: MIC",0.015 µg/mL
same,MBC,"S. aureus 4-81; S. aureus 4-81, read-out: MBC",0.03 µg/mL
same,MIC,"S. aureus 4-81; S. aureus 4-81, read-out: MIC",0.015 µg/mL
same,MBC,"S. epidermidis 2-1-B; S. epidermidis 2-1-B, read-out: MBC",0.03 µg/mL
same,MIC,"S. epidermidis 2-1-B; S. epidermidis 2-1-B, read-out: MIC",0.03 µg/mL
same,MBC,"S. pyogenes C203; S. pyogenes C203, read-out: MBC",0.5 µg/mL
same,MIC,"S. pyogenes C203; S. pyogenes C203, read-out: MIC",0.5 µg/mL
same,MBC,"S. faecalis 4510; S. faecalis 4510, read-out: MBC",0.125 µg/mL
same,MIC,"S. faecalis 4510; S. faecalis 4510, read-out: MIC",0.125 µg/mL
same,MBC,"S. aureus S-500; S. aureus S-500, read-out: MBC",0.06 µg/mL
same,MIC,"S. aureus S-500; S. aureus S-500, read-out: MIC",0.03 µg/mL
same,MBC,"S. pyogenes (89); S. pyogenes SWRI No. 89, read-out: MBC",0.5 µg/mL
same,MIC,"S. pyogenes (89); S. pyogenes SWRI No. 89, read-out: MIC",0.5 µg/mL
CN[C@H](CC(C)C)C(=O)N[C@H]1C(=O)N[C@@H](CC(N)=O)C(=O)N[C@H]2C(=O)N[C@H]3C(=O)N[C@H](C(=O)N[C@H](C(=O)O)c4cc(O)cc(O)c4-c4cc3ccc4O)[C@H](O)c3ccc(c(Cl)c3)Oc3cc2cc(c3O[C@@H]2O[C@H](CO)[C@@H](O)[C@H](O)[C@H]2O[C@H]2C[C@](C)(N)[C@H](O)[C@H](C)O2)Oc2ccc(cc2Cl)[C@H]1O [Vancomycin],MIC50,S. edidermidis,1 µg/mL
same,MIC90,S. edidermidis,1 µg/mL
same,MBC,S. edidermidis; read-out: MBC 50%,1 µg/mL
same,MBC,S. edidermidis; read-out: MBC 90%,2 µg/mL
same,MBC,S. edidermidis; read-out: MBC Range,1 to 2 µg/mL
same,MIC,S. edidermidis,1 to 2 µg/mL
same,MIC50,Streptococcus sp.; Streptococcus,2 µg/mL
same,MIC90,Streptococcus sp.; Streptococcus,16 µg/mL
same,MBC,"Streptococcus sp.; Streptococcus, read-out: MBC 50%",16 µg/mL
same,MBC,"Streptococcus sp.; Streptococcus, read-out: MBC 90%",> 125 µg/mL
same,MIC,Streptococcus sp.; Streptococcus,0.06 to 16 µg/mL
same,MBC,S. aureus; read-out: MBC 50%,1 µg/mL
same,MBC,S. aureus; read-out: MBC 90%,1 µg/mL
same,MBC,S. aureus; read-out: MBC Range,0.5 to 1 µg/mL
same,MIC50,S. aureus,1 µg/mL
same,MIC90,S. aureus,1 µg/mL
same,MIC,S. aureus,0.5 to 1 µg/mL
same,Survivors/Total,[1]; 6.25 mg/kg sc,0/10
same,Survivors/Total,[1]; 12.5 mg/kg sc,1/10
same,Survivors/Total,[1]; 25 mg/kg sc,9/10
same,Survivors/Total,[1]; 50 mg/kg sc,10/10
same,ED50,[1]; sc,17.7 mg/kg
same,MBC,S. pneumoniae Type I,16 µg/mL
same,MIC,S. pneumoniae Type I,16 µg/mL
same,MBC,S. aureus 39881; 39881,1 µg/mL
same,MIC,S. aureus 39881; 39881,1 µg/mL
same,MBC,S. aureus 4-81,0.5 µg/mL
same,MIC,S. aureus 4-81,0.5 µg/mL
same,MBC,S. epidermidis 2-1-B,2 µg/mL
same,MIC,S. epidermidis 2-1-B,1 µg/mL
same,MBC,S. pyogenes C203; C203,16 µg/mL
same,MIC,S. pyogenes C203; C203,16 µg/mL
same,MBC,S. faecalis 4510; 4510,> 125 µg/mL
same,MIC,S. faecalis 4510; 4510,2 µg/mL
same,MBC,S. aureus S-500,1 µg/mL
same,MIC,S. aureus S-500,1 µg/mL
same,MBC,S. pyogenes (89),16 µg/mL
same,MIC,S. pyogenes (89),16 µg/mL
